In US20070141707A1, “Sponge toxins” (priority 2003, published 2007):
pKd: −log10 of the molar value.

Key:
[1] = read-out: KD for zinc; cited from earlier work
HEK293 cells = assay: fura-2 intracellular Ca2+ imaging in HEK293 cells; type: cell-based, human; settings: poly-APS 0.5 μg/ml, n=11
Protocol: HEK293 cells (human embryonic kidney cell line) were maintained in Dulbecco's modified Eagle's medium (DMEM). In preparation for transfection experiments cells were seeded 24 hours prior to experimentation at a density of 5×10^5 cells per well in six well plates, the same seeding density was used for confocal and electrophysiology/calcium imaging experiments in 35 mm culture dishes.
Cultured DRG neurones and HEK 293 cells were incubated for 1 hour in NaCl-based extracellular solution containing 10 μM fura-2AM (Sigma, 1 mM stock in dimethylformamide). The cells were then washed for 20 minutes to remove the extracellular fura-2AM and to allow cytoplasmic de-esterification of the Ca^2+ sensitive fluorescent dye. The cells were constantly perfused (1-2 ml/min) and viewed under an inverted Olympus BX50W1 microscope with a KAI-1001 S/N 5B7890-4201 Olympus camera attached. The fluorescence ratiometric images from the data obtained at excitation wavelengths of 340 nm and 380 nm were viewed and analysed using OraCal pro, Merlin morphometry temporal mode (Life Sciences resources, version 1.20).

cultured DRG neurones [2] = assay: Voltage clamp recording of poly-APS evoked inward/holding current in DRG neurones; type: cell-based, rat; settings: 1.5 mM zinc continually present, before poly-APS, n=6
Protocol: (§1) Primary cultures of dorsal root ganglion (DRG) neurones were prepared following enzymatic and mechanical dissociation of dorsal root ganglia from decapitated 2-day old Sprague Dawley rats. The sensory neurones were plated on laminin-polyornithine coated coverslips and bathed in F14 culture medium (Imperial Laboratories) supplemented with 10% horse serum (Gibco), penicillin (5000 IU/ml), streptomycin ([…]), NaHCO3 (14 mM) and nerve growth factor (20 ng/ml). The cultures were maintained for up to 2 weeks at 37° C. in humidified air with 5% CO2, and re-fed with fresh culture medium every 5-7 days.
(§2) All experiments were conducted at room temperature (approximately 23° C.). The whole-cell recording technique was used to study the actions of poly-APS and halitoxin preparations on membrane potential, input resistance (evaluated from 100-300 ms electrotonic potentials evoked by −30 to −200 pA current commands) and holding current. Whole cell recordings were made using an Axoclamp-2A switching voltage clamp amplifier operated at a sampling rate of 15-20 kHz. […] Poly-APS and halitoxin were applied to the extracellular environment by low pressure ejection via a blunt micropipette (tip diameter about […]) positioned approximately […] from the neurone being recorded. […]

cultured DRG neurones [3] = assay: Whole-cell recording of membrane potential and input resistance in cultured DRG neurones; type: cell-based, rat; settings: 1.5 mM zinc, before poly-APS, n=7
Protocol: as §1
as §2, with “current.” for “current. Whole cell recordings were made using an Axoclamp-2A switching voltage clamp amplifier operated at a sampling rate of 15-20 kHz.”
The electrophysiological data were stored on digital audio tape (DAT) using a DTR-1200 DAT recorder (Biologic) and subsequently analysed using Cambridge Electronic Design voltage clamp software (version 6). […]

Structure (SMILES) | pKd [1] | effect of zinc on rise in intracellular Ca2+ produced by poly-APS (HEK293 cells) | resting holding current at −90 mV with zinc (cultured DRG neurones [2]) | resting membrane potential in the presence of zinc (cultured DRG neurones [3])
Cc1ccc(N(CC(=O)O)CC(=O)O)c(OCCOc2cc3cc(-c4ncc(C(=O)O)o4)oc3cc2N(CC(=O)O)CC(=O)O)c1 [fura-2] | ~8.70 | – | – | –
[Zn+2] [zinc] | – | attenuated | −120±30 pA | −47±7 mV
